According to publication PMC12040169 (PLOS Biology, 2025):

test: in vitro; conditions: human, hela cells, % viability

Point of comparison: `Cc1nn(Cc2ccccc2)c(C)c1CNC(=O)c1nc(Cl)ccc1Cl` [CBK297928], viability at 28.5 h, 10 µM 93.8%. Against it:
- COc1cccc(C(=O)N2CCN(C(=O)c3cccc(F)c3)CC2)c1OC [CBK263316] — higher, 105%
- Cn1c(=O)c2[nH]c(CN3CCN(Cc4ccccc4)CC3)nc2n(C)c1=O [CBK269519] — lower, 86.3%
- CC(=O)Nc1ccc(CN2CCCCCC2c2cc(C)no2)cc1 (stereo not shown) [CBK285415] — higher, 101%
- O=C(CSc1ccc(Cl)cc1)NNC(=O)c1cccc([N+](=O)[O-])c1 [CBK268384] — lower, 93.5%
- CCNC(=O)N1CC2(CCN(C/C=C/c3ccccc3)CC2)c2ccccc21 [CBK144596T] — higher, 97.6%
- O=S(=O)(Nc1nnn[nH]1)c1csc2ccccc12 [CBK062590] — higher, 103%
- c1ccc(Oc2ccc(Nc3cc(-c4ccc(N5CCOCC5)cc4)ncn3)cc2)cc1 [CBK090923] — lower, 83.3%
- O=C(O)CCSc1nnc(-c2cccnc2)n1-c1ccccc1 [CBK268734] — higher, 102%
- CC1CN(CC(=O)NC(C)(C)c2ccccc2)CC(C)N1 (stereo not shown) [CBK051693] — lower, 83.8%
- CC1(Cn2ccnc2-c2ccccc2C(=O)O)CCCO1 (stereo not shown) [CBK307439] — lower, 88.8%
- CNCC(=O)N1c2ccccc2CCc2ccc(NC(=O)OC)cc21 [CBK261285C] — higher, 96.5%
- CC(NC(=O)N1CCSCC1)c1ccc2c(c1)CC(=O)N2 (stereo not shown) [CBK305093] — higher, 96.7%
- O=C(O)C1Nc2c(Cl)cc(Cl)cc2C2C=CCC12 (stereo not shown) [CBK077855] — lower, 78.5%
- CC(=O)C1=C(O)C(=O)N(CCCC(=O)O)C1c1cccc([N+](=O)[O-])c1 (stereo not shown) [CBK263801] — higher, 103%
- O=C1NC2(CC3CCC2N3Cc2ccco2)Nc2ccccc21 (stereo not shown) [CBK284446] — lower, 91.8%
- O=C1NC2(CCN(C(=O)Cc3ccsc3)CC2)Nc2ccccc21 [CBK283963] — higher, 94.7%
- CN(C(=O)CN1C2CCC1CC(O)(c1ccco1)C2)C1CCCCC1 (stereo not shown) [CBK284108] — higher, 102%
- CCOc1cc(/C=N/O)c(Br)cc1O [CBK288359] — lower, 87.4%
- NC(=O)c1cc(C(=O)c2ccccc2F)c[nH]1 [CBK017284] — higher, 112%
- O=C(NC1(c2ccccc2)CC1)c1cccc(-n2cnnc2)c1 [CBK282779] — higher, 99.1%
- COc1ccc(CNc2ccc(N3CCOCC3)c(C(=O)O)c2)c(OC)c1 [CBK269860] — lower, 91.3%
- CN(C)CCCN1C(=O)C(O)=C(C(=O)c2ccc(F)cc2)C1c1ccco1 (stereo not shown) [CBK264456] — higher, 94.6%
- CC(C)(C)c1cc(CN(Cc2cc(C(C)(C)C)c(O)c(C(C)(C)C)c2)C2CCCCC2)cc(C(C)(C)C)c1O [CBK261996] — higher, 106%
- COc1ccc(OC)c(NC(=O)Cn2cc(C(C)=O)c3ccccc32)c1 [CBK268661] — lower, 92.5%
- CC(C)(C)c1oc(C(=O)O)cc1CN1CCCC1 [CBK287136] — lower, 84.7%
- C#C[C@H]1C[N@@]2CC[C@H]1C[C@@H]2CNC(=O)Nc1ccc(C(C)=O)cc1 [CBK288755] — higher, 114%
- CCOc1cc(/C=N/O)ccc1OC(=O)c1cccc([N+](=O)[O-])c1 [CBK090036] — higher, 107%
- O=C1NC(c2ccccc2)Cc2onc(-c3ccccc3)c21 (stereo not shown) [CBK004409] — lower, 90.9%
- Cc1cc(S(=O)(=O)CC#N)c(C)cc1Cl [CBK018672] — lower, 89.2%
- CCCCN(C(=O)C(F)(F)c1ccccc1)c1c(N)n(CCC)c(=O)[nH]c1=O [CBK297769] — lower, 91.4%
- CN1CCN(C(=O)c2c(NS(=O)(=O)/C=C/c3ccccc3)sc3c2CCCC3)CC1 [CBK050417] — higher, 94.3%
- CN(C(=O)CN1CCN(c2cc(-c3cccc4oc5ccccc5c34)ncn2)CC1)c1ccccc1 [CBK091130] — higher, 97.8%
- CN(C)C(=O)COc1cccc(Nc2nc(-c3cccc4ccccc34)cn3ccnc23)c1 [CBK037393] — lower, 82.1%
- O=C(Nc1ccc(Cl)cc1)N1CCCCC1CO (stereo not shown) [CBK156179] — higher, 99.5%
- Cc1oc2c(c1C(=O)NCCn1ccnc1C)CCCC2 [CBK281898] — higher, 97.1%
- Cc1nc2cc(NC(=O)Cc3c(C)nc4ccccc4c3C)ccc2o1 [CBK297083] — higher, 110%
- NC1=Nc2nc3ccccc3n2C(c2ccc3c(c2)OCO3)N1 (stereo not shown) [CBK269906] — lower, 85.7%
- O=C(c1cc(F)c(F)cc1F)N1CCC2(CCCN(CCCn3c(=O)[nH]c4ccccc43)C2)C1 (stereo not shown) [CBK132004] — lower, 84.9%
- CCNc1nc(-c2ccsc2)cn2ccnc12 [CBK037375] — lower, 87.9%
- COc1cc(NC(=O)c2cc3c4c(sc3nc2N)CN(C)CC4)c(OC)c(OC)c1 [CBK269597] — lower, 77.1%
- CCOC(=O)CCc1nc2ccccc2nc1O [CBK264526] — higher, 106%
- O=C(NCc1ccccc1)[C@@H]1Cc2[nH]cnc2CN1C(=O)C1CCCCC1 [CBK288972] — higher, 113%
- Cc1nnc(SCC(=O)N/N=C/c2ccncc2)n1-c1ccccc1 [CBK262762] — lower, 85.4%
- Cc1c(C)n(Cc2cccnc2)c2ncn(C3CCCCCC3)c(=N)c12 [CBK287932] — lower, 85.9%
- Cc1cccnc1NC(=O)c1ccc(NC(C)C)c([N+](=O)[O-])c1 [CBK269494] — lower, 86.1%
- Cc1cc(NC(=O)C2CCCCC2)nc2c1c(=O)oc1ccccc12 [CBK291247] — lower, 83.1%
- COc1ccccc1C1=NN(C(=O)CCCC(=O)O)C(c2ccco2)C1 (stereo not shown) [CBK266642] — lower, 91.8%
- COC(=O)CNC(=O)C1CC(=O)N(c2ccccc2Br)C1 (stereo not shown) [CBK296672] — higher, 97.1%
- Cc1ccc2c(c1)c(=O)cc(C(F)(F)F)n2C[C@H]1CCCN1 [CBK285303] — lower, 36.2%
- COc1ccc(CCNc2nc(-c3ccccn3)cs2)cc1OC [CBK267260] — higher, 100%
- Cc1ccc(S(=O)(=O)N2CCC(C(=O)NC3(C(=O)O)CCCCC3)CC2)cc1 [CBK295644] — higher, 109%
- CCCN1CCC(N2CCN(c3ccc([N+](=O)[O-])cc3)CC2)CC1 [CBK018459] — higher, 96.3%
- Cn1ncc2c1CCCN(C(=O)c1ccccc1C(F)(F)F)C2 [CBK282251] — lower, 84.1%
- FC(F)(F)c1cccc(Sc2ccc(Cl)c(Cl)c2)n1 [CBK089608] — lower, 91.2%
- O=C(Cc1cc(Cl)ccc1C(F)(F)F)NCCc1c[nH]c2ccc(Cl)cc12 [CBK159759] — lower, 80.2%
- CCOC(=O)N1CCC(n2c(=O)[nH]c3ccccc32)CC1 [CBK149867] — lower, 79.6%
- N/C(CSc1cccc2c1CCCC2)=N\O [CBK006787C] — higher, 101%
- CSCCC(=O)NC1CCCc2nc(N3CCC(CO)CC3)ncc21 (stereo not shown) [CBK306782] — lower, 91.3%
- CS(=O)(=O)c1ccc(-c2cnc(N)c3ncccc23)cc1 [CBK067593] — lower, 90.5%
- COc1cc(-c2nnc(NC(C)=O)o2)cc(OC)c1OC [CBK287698] — higher, 95.2%

same assay, conditions: human, hela cells, % viability, bulk resorufin, single well

Point of comparison: `CN(C)Cc1c(O)[nH]c(=S)[nH]c1=O` [CBK262474], viability at 28.5 h, 10 µM 92.6%. Against it:
- CCOC(=O)C1(c2ccccc2)CCN(C(=O)N(CCN)CCC(C)c2ccccc2)CC1 (stereo not shown) [CBK002129C] — lower, 82.6%
- COc1ccc2[nH]cc(CC(=O)Nc3cccc(-c4ccc5c(c4)COC4(CCNCC4)O5)c3)c2c1 [CBK105859] — lower, 78%
